What was measured:
[1] = in vivo; settings: BALB/c, mouse, iv, 3 mg/kg
[2] = in vivo; settings: BALB/c, mouse, po, 10 mg/kg
[3] = in vivo; settings: BALB/c, mouse, iv, 3 mg/kg; remark: listed apart in the source

Row | Vd [1] [L/kg] | bioavailability [2] [%] | clearance [3] [L/h/kg] | SMILES
1 | 9.25 | 5.6 | 4.14 | CC(C)CN1C[C@H](Cc2ccc(Cl)cc2)N(C2CCN(c3ccccn3)CC2)C[C@@H]1C
2 | 2.5 | – | 3.48 | Cc1ccnc(N2CCC(N3C[C@H](C)OC[C@@H]3Cc3ccc(Cl)cc3)CC2)c1
